This is an account of results in patent US20240246964A1 (Arbutus Biopharma Corporation, priority 2021, published 2024).

SMILES strings stand for the structures.

One test has as its target human PD-L1 (Homo sapiens (Human), UniProt Q9NZQ7). In words: T cell activation luciferase reporter cell culture system (T Cell Activation Assay). Type of test: cell-based. The settings on record: luciferase reporter assay; PD-L1 aAPC/CHO-K1 cells with PD-1 effector Jurkat T cells. For orientation: A reporter such as luciferase makes a cellular process visible.
The target in test [1] is PD-L1 His protein / PD-1 Fc protein (Homo sapiens (Human), UniProt Q9NZQ7). As to the kind of experiment: HTRF Assay (PD-1/PD-L1 interaction). Type of test: binding. Conditions: PD-L1 His 6 nM, PD-1 Fc 6 nM. For orientation: In TR-FRET formats the signal depends on donor and acceptor labels being close together.
Sequence of PD-L1 His protein / PD-1 Fc protein (Q9NZQ7 19-238): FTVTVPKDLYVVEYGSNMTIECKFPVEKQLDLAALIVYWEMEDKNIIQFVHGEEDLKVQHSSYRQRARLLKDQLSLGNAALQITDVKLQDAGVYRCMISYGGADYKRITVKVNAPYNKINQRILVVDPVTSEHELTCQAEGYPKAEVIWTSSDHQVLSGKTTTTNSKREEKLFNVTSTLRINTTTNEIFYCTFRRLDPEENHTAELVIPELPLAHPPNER

Sequence of human PD-L1 (Q9NZQ7 19-290): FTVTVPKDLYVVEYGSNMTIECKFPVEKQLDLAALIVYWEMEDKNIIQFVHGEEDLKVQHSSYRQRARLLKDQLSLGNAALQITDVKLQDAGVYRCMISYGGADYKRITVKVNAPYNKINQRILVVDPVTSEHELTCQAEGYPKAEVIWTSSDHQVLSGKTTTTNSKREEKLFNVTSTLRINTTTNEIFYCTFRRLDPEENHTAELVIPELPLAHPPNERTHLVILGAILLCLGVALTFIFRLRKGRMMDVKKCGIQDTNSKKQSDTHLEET

By EC50 is commonly meant the midpoint of the concentration-response curve. High values mean a less potent agent, low ones a more potent agent. What is called IC50 is the midpoint of a concentration-inhibition curve. A low value points to inhibition by little substance. On human PD-L1, `CNCc1ccc(-c2cccc(-c3ccnc(-c4ccc(CN5CC6(CC(C(=O)O)C6)C5)c(OC)c4)c3Cl)c2Cl)nc1OC` [Compound 227, 2-(4-(3-chloro-4-(2-chloro-3-(6-methoxy-5-((methylamino)methyl)pyridin-2-yl)phenyl)pyridin-2-yl)-2-methoxybenzyl)-2-azaspiro[3.3]heptane-6-carboxylic acid] gave a 50% effective concentration (EC50) of 31.3 nM. Also, 5.25 nM corresponded to half-maximal inhibition in test [1] (IC50).
`CNCc1ccc(-c2cccc(-c3ccnc(-c4ccc(CNCC56CC(C(=O)O)(C5)C6)c(OC)c4)c3Cl)c2Cl)nc1OC` [Compound 228, 3-(((4-(3-chloro-4-(2-chloro-3-(6-methoxy-5-((methylamino)methyl)pyridin-2-yl)phenyl)pyridin-2-yl)-2-methoxybenzyl)amino)methyl)bicyclo[1.1.1]pentane-1-carboxylic acid] yielded an EC50 on human PD-L1 of 75.5 nM. In test [1], this compound registered a half-maximal inhibitory concentration (IC50) of 0.23 nM.
Taken in the same sequence, the figures for `COc1cc(-c2nccc(-c3cccc(-c4ccc(CNCC(=O)O)c(OC)n4)c3Cl)c2Cl)cc2c1CN(C[C@H](C)O)CC2` [Compound 229, (S)-((6-(2-chloro-3-(3-chloro-2-(2-(2-hydroxypropyl)-8-methoxy-1,2,3,4-tetrahydroisoquinolin-6-yl)pyridin-4-yl)phenyl)-2-methoxypyridin-3-yl)methyl)glycine] were 244 nM and 1.13 nM.
`COc1nc(-c2cccc(-c3ccnc(-c4ccc5c(c4)CNC5)c3Cl)c2Cl)ccc1CN1CC2(CNC(=O)C2)C1` [Compound 230, 2-((6-(2-chloro-3-(3-chloro-2-(isoindolin-5-yl)pyridin-4-yl)phenyl)-2-methoxypyridin-3-yl)methyl)-2,6-diazaspiro[3.4]octan-7-one] gave a concentration for a half-maximal effect (EC50) at human PD-L1 of 392 nM. In test [1], this compound displayed a half-inhibitory concentration (IC50) of 10.8 nM.
The corresponding values for `COc1cc(-c2nccc(-c3ccnc(-c4cc5c(c(OC)c4)CN(C[C@@H]4CCC(=O)N4)CC5)c3Cl)c2Cl)cc2c1CN(C[C@@H]1CCC(=O)N1)CC2` [Compound 266, (5S,5'S)-5,5′-(((3,3′-Dichloro-[4,4′-bipyridine]-2,2′-diyl)bis(8-methoxy-3,4-dihydroisoquinoline-6,2(1H)-diyl))bis(methylene))bis(pyrrolidin-2-one)] are 439 nM and 18.4 nM.
The corresponding values for `COC(=O)[C@H](CCO)NCc1ncc(-c2nccc(-c3cccc(-c4ccc(CNC[C@@H]5CCC(=O)N5)c(OC)n4)c3Cl)c2Cl)cc1OC` [Compound 267, Methyl ((3-chloro-4-(2-chloro-3-(6-methoxy-5-(((((S)-5-oxopyrrolidin-2-yl)methyl)amino)methyl)pyridin-2-yl)phenyl)-5′-methoxy-[2,3′-bipyridin]-6′-yl)methyl)-L-homoserinate] are 639 nM and 2.97 nM.
Taken in the same sequence, the figures for `COc1cc(-c2nccc(-c3cccc(-c4ccc(CNC[C@@H]5CCC(=O)N5)c(OC)n4)c3Cl)c2Cl)cnc1CN[C@H]1CCOC1=O` [Compound 268, (S)-5-((((6-(2-Chloro-3-(3-chloro-5′-methoxy-6′-((((S)-2-oxotetrahydrofuran-3-yl)amino)methyl)-[2,3′-bipyridin]-4-yl)phenyl)-2-methoxypyridin-3-yl)methyl)-amino)methyl)pyrrolidin-2-one] were 669 nM and 1.46 nM.
On to `COc1cc(-c2nccc(-c3ccnc(-c4cc(F)c(CNC5CCN(C(C)=O)CC5)c(OC)c4)c3Cl)c2Cl)cc(F)c1CNC1CCN(C(C)=O)CC1` [Compound 313, 1,1′-(((((3,3′-Dichloro-[4,4′-bipyridine]-2,2′-diyl)bis(2-fluoro-6-methoxy-4,1-phenylene))bis(methylene))bis(azanediyl))bis(piperidine-4,1-diyl))bis(ethan-1-one)], for which the EC50 on human PD-L1 is 97.3 nM. For the same compound, the IC50 in test [1] came to 4.6 nM.
Take `COc1cc(-c2nccc(-c3cccc(-c4ccc(CNC5CCN(C(C)=O)CC5)c(OC)n4)c3Cl)c2Cl)cnc1CNC1CCN(C(C)=O)CC1` [Compound 375, 1-(4-(((6-(3-(6′-(((1-Acetylpiperidin-4-yl)amino)methyl)-3-chloro-5′-methoxy-[2,3′-bipyridin]-4-yl)-2-chlorophenyl)-2-methoxypyridin-3-yl)methyl)amino)piperidin-1-yl)ethan-1-one]: the concentration giving a half-maximal response (EC50) on human PD-L1 is 46.4 nM. This compound also gave an IC50 in test [1] of 1.24 nM.
In the case of `COc1cc(-c2nccc(-c3cccc(-c4ccc(CN5CC6(CNC(=O)C6)C5)c(OC)n4)c3Cl)c2Cl)cnc1CN1CC2(CNC(=O)C2)C1` [Compound 376, 2-((3-Chloro-4-(2-chloro-3-(6-methoxy-5-((7-oxo-2,6-diazaspiro[3.4]octan-2-yl)methyl)pyridin-2-yl)phenyl)-5′-methoxy-[2,3′-bipyridin]-6′-yl)methyl)-2,6-diazaspiro[3.4]octan-7-one], the 50% effective concentration (EC50) on human PD-L1 turned out to be 38.4 nM. In test [1], this compound returned a half-maximal inhibitory concentration (IC50) of 0.458 nM.
Regarding `COc1cc(-c2nccc(-c3cccc(-c4ccc(CN5CC6(C5)CN(C(C)=O)C6)c(OC)n4)c3Cl)c2Cl)cnc1CN1CC2(C1)CN(C(C)=O)C2` [Compound 428, 1-(6-((6-(3-(6′-((6-Acetyl-2,6-diazaspiro[3.3]heptan-2-yl)methyl)-3-chloro-5′-methoxy-[2,3′-bipyridin]-4-yl)-2-chlorophenyl)-2-methoxypyridin-3-yl)methyl)-2,6-diazaspiro[3.3]heptan-2-yl)ethan-1-one], at human PD-L1, the concentration giving a half-maximal response (EC50) is 51.2 nM. Moreover, 0.77 nM corresponded to half-maximal inhibition in test [1] (IC50).
Taken in the same sequence, the figures for `COc1cc(-c2nccc(-c3cccc(-c4ccc(CNC5CC6(COC6)C5)c(OC)n4)c3Cl)c2Cl)cnc1CNC1CC2(COC2)C1` (stereo not drawn) [Compound 429, N-((4-(3-(5-(((2-Oxaspiro[3.3]heptan-6-yl)amino)methyl)-6-methoxypyridin-2-yl)-2-chlorophenyl)-3-chloro-5′-methoxy-[2,3′-bipyridin]-6′-yl)methyl)-2-oxaspiro[3.3]heptan-6-amine] were 71.4 nM and 4.1 nM.
The corresponding values for `COc1cc(-c2nccc(-c3cccc(-c4ccc(CN5CC6(CCC(=O)N6)C5)c(OC)n4)c3Cl)c2Cl)cnc1CN1CC2(CCC(=O)N2)C1` [Compound 430, 2-((3-Chloro-4-(2-chloro-3-(6-methoxy-5-((6-oxo-2,5-diazaspiro[3.4]octan-2-yl)methyl)pyridin-2-yl)phenyl)-5′-methoxy-[2,3′-bipyridin]-6′-yl)methyl)-2,5-diazaspiro[3.4]octan-6-one] are 23.3 nM and 0.35 nM.
Turning to `COc1cc(-c2nccc(-c3cccc(-c4ccc(CNC5CCOCC5)c(OC)n4)c3Cl)c2Cl)cnc1CNC1CCOCC1` [Compound 431, N-((6-(2-Chloro-3-(3-chloro-5′-methoxy-6′-(((tetrahydro-2H-pyran-4-yl)amino)methyl)-[2,3′-bipyridin]-4-yl)phenyl)-2-methoxypyridin-3-yl)methyl)tetrahydro-2H-pyran-4-amine], it took 106 nM to reach a half-maximal effect at human PD-L1 (EC50). The compound further registered an IC50 in test [1] of 2.03 nM.
For the compound `COc1cc(-c2cccc(-c3ccnc(-c4cnc(CNC5CCN(C(C)=O)CC5)c(OC)c4)c3Cl)c2Cl)ccc1CNC1CCN(C(C)=O)CC1` [Compound 500, 1-(4-(((4-(4′-(((1-acetylpiperidin-4-yl)amino)methyl)-2-chloro-3′-methoxy-[1,1′-biphenyl]-3-yl)-3-chloro-5′-methoxy-[2,3′-bipyridin]-6′-yl)methyl)amino)piperidin-1-yl)ethan-1-one], the response at human PD-L1 was half-maximal at 120 nM (EC50). Further, the IC50 in test [1] was determined as 1.95 nM.
